This assay addresses 3-phosphoinositide-dependent protein kinase 1, PDPK1 (Homo sapiens) (UniProt O15530). Nature of the assay: Inhibition of PDK1.

pIC50: −log10 of the molar value. A value given as a limit tells only on which side of the number the result lay.

Chain of 3-phosphoinositide-dependent protein kinase 1, PDPK1 (Homo sapiens) (O15530 whole entry, looked up): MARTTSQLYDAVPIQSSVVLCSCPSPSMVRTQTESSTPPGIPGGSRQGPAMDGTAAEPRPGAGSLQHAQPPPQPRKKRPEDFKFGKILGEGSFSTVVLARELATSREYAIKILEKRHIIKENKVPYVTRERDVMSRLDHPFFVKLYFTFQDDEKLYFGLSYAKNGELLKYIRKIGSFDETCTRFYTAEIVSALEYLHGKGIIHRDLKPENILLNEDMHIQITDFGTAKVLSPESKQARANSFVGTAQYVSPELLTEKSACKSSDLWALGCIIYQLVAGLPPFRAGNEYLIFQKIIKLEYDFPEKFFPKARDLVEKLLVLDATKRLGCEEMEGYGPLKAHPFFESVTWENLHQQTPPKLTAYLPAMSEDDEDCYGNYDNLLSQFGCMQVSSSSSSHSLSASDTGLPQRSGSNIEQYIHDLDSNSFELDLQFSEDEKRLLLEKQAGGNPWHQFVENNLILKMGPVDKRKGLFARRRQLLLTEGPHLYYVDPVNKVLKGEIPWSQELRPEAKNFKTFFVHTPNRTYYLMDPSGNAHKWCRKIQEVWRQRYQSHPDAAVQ

A word on the pIC50: it is the IC50 on a negative log10 scale, so that one unit is a factor of ten. Low values mean a large IC50, high ones a small IC50. As for `CC(=O)N1CCC(Nc2ncc3c(n2)-c2c(c(C(N)=O)nn2C)CC3)CC1` [8-[(1-Acetylpiperidin-4-yl)amino]-1-methyl-4,5-dihydro-1H-pyrazolo[4,3-h]quinazoline-3-carboxamide], the negative logarithm of the IC50 (pIC50) is less than 5.00.
Compound `Cn1nc(C(N)=O)c2c1-c1nc(NC3CCN(C(=O)c4ccccc4)CC3)ncc1CC2` [1-Methyl-8-{[1-(phenylcarbonyl)piperidin-4-yl]amino}-4,5-dihydro-1H-pyrazolo[4,3-h]quinazoline-3-carboxamide] showed a negative-log IC50 (pIC50) of less than 5.00.

Source of the values: BindingDB's records for doi:10.1021/jm901710h (Nerviano Medical Sciences, 2010).
